assay: Inhibition of ROCK

| Structure (SMILES) | pIC50 |
| --- | --- |
| Fc1ccc(CN2CCC(Nc3cccc4cnccc34)C2)cc1 (stereo not drawn) | 7.02 |
| c1ccc(CCN[C@H]2CC[C@@H](Nc3cccc4cnccc34)CC2)cc1 | 6.24 |
| O=C(NCc1ccc(Cl)cc1Cl)Nc1ccc2[nH]ncc2c1 | 6.66 |
| c1cc(N[C@H]2CC[C@@H](NC3CC3)CC2)c2ccncc2c1 | 6.74 |
| Fc1cccc(F)c1CN1CCC(Nc2cccc3cnccc23)C1 (stereo not drawn) | 7.12 |
| c1cc2[nH]ncc2cc1NC1CCNCC1 | 6.52 |
| CCCN1CCC(Nc2cccc3cnccc23)CC1 | 6.46 |
| c1ccc(CCN[C@H]2CC[C@H](Nc3cccc4cnccc34)CC2)cc1 | 6.39 |
| Nc1ccccc1CN1CCC(Nc2cccc3cnccc23)C1 (stereo not drawn) | 6.69 |
| CCCN[C@H]1CC[C@H](Nc2cccc3cnccc23)CC1 | 6.74 |
| O=C(NCc1c(Cl)cccc1Cl)Nc1ccc2[nH]ncc2c1 | 7.7 |
| O=C(COc1c(Cl)cc(F)cc1Cl)Nc1ccc2[nH]ncc2c1 | 6.3 |
| CC(C)CCCN1CCCC(Nc2cccc3cnccc23)C1 (stereo not drawn) | 7 |
| Clc1ccc(CN2CCC(Nc3cccc4cnccc34)C2)cc1 (stereo not drawn) | 7.19 |
| CCCN[C@H]1CC[C@@H](Nc2cccc3cnccc23)CC1 | 6.74 |
| O=C(CC1CCCCC1)Nc1ccc2[nH]ncc2c1 | 6.05 |

| Structure (SMILES) | pIC50 |
| --- | --- |
| CC(C)CN1CCC(Nc2cccc3cnccc23)CC1 | 6.68 |
| CC(C)CCN1CCCC(Nc2ccc3[nH]ncc3c2)C1 (stereo not drawn) | 6.47 |
| O=C(NCc1c(F)cccc1F)Nc1ccc2[nH]ncc2c1 | 7.07 |
| CC(C)CCN1CCCC(Nc2cccc3cnccc23)C1 (stereo not drawn) | 6.57 |
| O=C(COc1c(Cl)cccc1Cl)Nc1ccc2[nH]ncc2c1 | 6 |
| Clc1ccccc1CN1CCCC(Nc2cccc3cnccc23)C1 (stereo not drawn) | 6.68 |
| c1cc(N[C@H]2CC[C@H](NC3CC3)CC2)c2ccncc2c1 | 7.15 |
| Clc1cccc(CN2CCC(Nc3cccc4cnccc34)C2)c1 (stereo not drawn) | 7.19 |
| c1cc2[nH]ncc2cc1NC1CCNC1 (stereo not drawn) | 7 |
| Clc1cccc(CN2CCCC(Nc3cccc4cnccc34)C2)c1 (stereo not drawn) | 6.58 |
| CNC1CCC(Nc2cccc3cnccc23)CC1 (stereo not drawn) | 6.7 |
| Clc1ccccc1CN1CCC(Nc2cccc3cnccc23)C1 (stereo not drawn) | 7 |
| O=C(Nc1ccc2[nH]ncc2c1)C1CCCCC1 | 6.3 |
| Nc1ccc(CN2CCC(Nc3cccc4cnccc34)C2)cc1 (stereo not drawn) | 6.63 |
| Nc1cccc(CN2CCC(Nc3cccc4cnccc34)C2)c1 (stereo not drawn) | 6.56 |

Other lines, results leading:

| pIC50 | Structure (SMILES) |
| --- | --- |
| 7.49 | c1ccc(CN2CCC(Nc3ccc4[nH]ncc4c3)C2)cc1 (stereo not drawn) |
| 7 | c1ccc(CN2CCC(Oc3ccc4[nH]ncc4c3)CC2)cc1 |
| 8 | Nc1ccc(CN2CCCC(Nc3ccc4[nH]ncc4c3)C2)cc1 (stereo not drawn) |
| 6.74 | c1coc(CN2CCCC(Nc3ccc4[nH]ncc4c3)C2)c1 (stereo not drawn) |
| 7.72 | Clc1cccc(CN2CCCC(Nc3ccc4[nH]ncc4c3)C2)c1 (stereo not drawn) |
| 7.1 | COc1cc(CN2CCCC(Nc3ccc4[nH]ncc4c3)C2)cc(OC)c1 (stereo not drawn) |
| 7.96 | c1c[nH]c(CN2CCCC(Nc3ccc4[nH]ncc4c3)C2)c1 (stereo not drawn) |
| 7.8 | COc1ccc(CN2CCCC(Nc3ccc4[nH]ncc4c3)C2)cc1 (stereo not drawn) |
| 7.07 | Nc1ccccc1CN1CCCC(Nc2ccc3[nH]ncc3c2)C1 (stereo not drawn) |
| 7.7 | c1ccc(CN2CCCC(Nc3ccc4[nH]ncc4c3)C2)cc1 (stereo not drawn) |
| 6.7 | c1ccc(CN2CCCC(Nc3cccc4cnccc34)C2)cc1 (stereo not drawn) |
| 7.35 | Clc1ccccc1CN1CCC(Nc2ccc3[nH]ncc3c2)C1 (stereo not drawn) |
| 6.59 | O=C(NCc1ccccc1)Nc1ccc2[nH]ncc2c1 |
| 6.49 | c1ccc(CN[C@H]2CC[C@@H](Nc3ccc4[nH]ncc4c3)CC2)cc1 |
| 6.82 | Cc1n[nH]c2ccc(NC3CCCN(Cc4ccccc4)C3)cc12 (stereo not drawn) |
| 6.62 | c1ccc(CN2CCCC(Nc3ccc4[nH]ncc4c3)C2)nc1 (stereo not drawn) |
| 6.11 | CCCN1CCCC(Nc2ccc3[nH]ncc3c2)C1 (stereo not drawn) |
| 6.15 | CCN1CCC(Nc2ccc3[nH]ncc3c2)CC1 |
| 5.1 | CN(CCNc1ccc2[nH]ncc2c1)Cc1ccccc1 |

| pIC50 | Structure (SMILES) |
| --- | --- |
| 7.46 | Nc1cccc(CN2CCCC(Nc3ccc4[nH]ncc4c3)C2)c1 (stereo not drawn) |
| 8.05 | Cc1ccc(CN2CCCC(Nc3ccc4[nH]ncc4c3)C2)cc1 (stereo not drawn) |
| 6.87 | O=C(Nc1ccc2[nH]ncc2c1)C1CCN(Cc2ccccc2)CC1 |
| 7.89 | Clc1ccccc1CN1CCCC(Nc2ccc3[nH]ncc3c2)C1 (stereo not drawn) |
| 7.14 | c1cncc(CN2CCCC(Nc3ccc4[nH]ncc4c3)C2)c1 (stereo not drawn) |
| 6.85 | c1ccc(CN2CCC(Nc3cccc4cnccc34)CC2)cc1 |
| 7.74 | O=C(Nc1ccc2[nH]ncc2c1)C1CCCN(Cc2ccccc2)C1 (stereo not drawn) |
| 6.28 | c1ccc(CN[C@H]2CC[C@H](Nc3ccc4[nH]ncc4c3)CC2)cc1 |
| 6.27 | O=C(NC1CCN(Cc2ccccc2)CC1)c1ccc2[nH]ncc2c1 |
| 8 | c1ccc(CN2CCCC(Oc3ccc4[nH]ncc4c3)C2)cc1 (stereo not drawn) |
| 6.36 | Clc1ccccc1CN1CCC(Nc2ccc3[nH]ncc3c2)CC1 |
| 7.96 | Clc1ccc(CN2CCCC(Nc3ccc4[nH]ncc4c3)C2)cc1 (stereo not drawn) |
| 6.54 | Clc1ccc(CN2CCC(Nc3ccc4[nH]ncc4c3)CC2)cc1 |
| 7.06 | O=[N+]([O-])c1ccc(CN2CCCC(Nc3ccc4[nH]ncc4c3)C2)cc1 (stereo not drawn) |
| 8 | Fc1ccc(CN2CCCC(Nc3ccc4[nH]ncc4c3)C2)cc1F (stereo not drawn) |
| 7.6 | Fc1ccc(CN2CCCC(Nc3ccc4[nH]ncc4c3)C2)cc1 (stereo not drawn) |
| 6.4 | Fc1cc2[nH]ncc2cc1NC1CCCN(Cc2ccccc2)C1 (stereo not drawn) |
| 6.54 | Clc1cccc(CN2CCC(Nc3ccc4[nH]ncc4c3)CC2)c1 |

Source: ChEMBL document CHEMBL1177844 (Eur J Med Chem, 2010)
